Test results as given in ChEMBL document CHEMBL1201862, “PubChem BioAssay data set” (2004).
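Each compound was tested at five concentrations against cells in 96-well plates for 48 hours. GI50 marks 50% less growth.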 Active and inactive are the calls of the source. Rule as the data show it: active = GI50 up to about 1.1 µM and inactive = higher.

What was measured:
Assay in all cases: NCI-60 cell line screen, 48 h
Malme-3M = test system: Malme-3M
TK-10 = test system: TK-10
SK-MEL-28 = test system: SK-MEL-28
UACC-257 = test system: UACC-257
DMS-273 = test system: DMS-273
EKVX = test system: EKVX
SNB-78 = test system: SNB-78
M19-MEL = test system: M19-MEL
SW-620 = test system: SW-620
U-251 = test system: U-251
A498 = test system: A498
SF-295 = test system: SF-295
MOLT-4 = test system: MOLT-4
DLD-1 = test system: DLD-1
LOX IMVI = test system: LOX IMVI
UACC-62 = test system: UACC-62
IGROV-1 = test system: IGROV-1
SNB-19 = test system: SNB-19
COLO 205 = test system: COLO 205
HCC 2998 = test system: HCC 2998
RXF 393 = test system: RXF 393
NCI-H23 = test system: NCI-H23
SF-268 = test system: SF-268
HT-29 = test system: HT-29
NCI-H522 = test system: NCI-H522
RPMI-8226 = test system: RPMI-8226
KM-20L2 = test system: KM-20L2
SK-MEL-5 = test system: SK-MEL-5
SNB-75 = test system: SNB-75
HOP-18 = test system: HOP-18
OVCAR-5 = test system: OVCAR-5
CCRF-CEM = test system: CCRF-CEM
SF-539 = test system: SF-539
786-0 = test system: 786-0
HCT-116 = test system: HCT-116
OVCAR-3 = test system: OVCAR-3
KM12 = test system: KM12
HL-60 = test system: HL-60
DMS-114 = test system: DMS-114
UO-31 = test system: UO-31
M14 = test system: M14
LXFL 529 = test system: LXFL 529
OVCAR-8 = test system: OVCAR-8
A549 = test system: A549
K562 = test system: K562
SK-OV-3 = test system: SK-OV-3
CAKI-1 = test system: CAKI-1
SK-MEL-2 = test system: SK-MEL-2
OVCAR-4 = test system: OVCAR-4
HOP-62 = test system: HOP-62
HCT-15 = test system: HCT-15
NCI-H226 = test system: NCI-H226
NCI-H460 = test system: NCI-H460
SN12C = test system: SN12C
ACHN = test system: ACHN
HOP-92 = test system: HOP-92

## CCO/C([O-])=C(/C=O)[n+]1c(C)n(C)c2ccccc21
Malme-3M
  GI50: > 100 µM (inactive)
TK-10
  GI50: > 100 µM (inactive)
SK-MEL-28
  GI50: > 100 µM (inactive)
UACC-257
  GI50: > 100 µM (inactive)
DMS-273
  GI50: > 100 µM (inactive)
EKVX
  GI50: > 100 µM (inactive)
SNB-78
  GI50: > 100 µM (inactive)
M19-MEL
  GI50: > 100 µM (inactive)
SW-620
  GI50: > 100 µM (inactive)
U-251
  GI50: > 100 µM (inactive)
A498
  GI50: > 100 µM (inactive)
SF-295
  GI50: > 100 µM (inactive)
MOLT-4
  GI50: > 100 µM (inactive)
DLD-1
  GI50: > 100 µM (inactive)
LOX IMVI
  GI50: > 100 µM (inactive)
UACC-62
  GI50: > 100 µM (inactive)
IGROV-1
  GI50: > 100 µM (inactive)
SNB-19
  GI50: > 100 µM (inactive)
COLO 205
  GI50: > 100 µM (inactive)
HCC 2998
  GI50: > 100 µM (inactive)
RXF 393
  GI50: > 100 µM (inactive)
NCI-H23
  GI50: > 100 µM (inactive)
SF-268
  GI50: > 100 µM (inactive)
HT-29
  GI50: > 100 µM (inactive)
NCI-H522
  GI50: > 100 µM (inactive)
RPMI-8226
  GI50: > 100 µM (inactive)
KM-20L2
  GI50: > 100 µM (inactive)
SK-MEL-5
  GI50: > 100 µM (inactive)
SNB-75
  GI50: > 100 µM (inactive)
HOP-18
  GI50: > 100 µM (inactive)
OVCAR-5
  GI50: > 100 µM (inactive)
CCRF-CEM
  GI50: > 100 µM (inactive)
SF-539
  GI50: > 100 µM (inactive)
786-0
  GI50: > 100 µM (inactive)
HCT-116
  GI50: > 100 µM (inactive)
OVCAR-3
  GI50: > 100 µM (inactive)
KM12
  GI50: > 100 µM (inactive)
HL-60
  GI50: > 100 µM (inactive)
DMS-114
  GI50: > 100 µM (inactive)
UO-31
  GI50: > 100 µM (inactive)
M14
  GI50: > 100 µM (inactive)
LXFL 529
  GI50: > 100 µM (inactive)
OVCAR-8
  GI50: > 100 µM (inactive)
A549
  GI50: > 100 µM (inactive)
K562
  GI50: > 100 µM (inactive)
SK-OV-3
  GI50: > 100 µM (inactive)
CAKI-1
  GI50: > 100 µM (inactive)
SK-MEL-2
  GI50: > 100 µM (inactive)
OVCAR-4
  GI50: > 100 µM (inactive)
HOP-62
  GI50: > 100 µM (inactive)
HCT-15
  GI50: > 100 µM
NCI-H226
  GI50: > 100 µM (inactive)
NCI-H460
  GI50: > 100 µM (inactive)

## O=c1c2ccccc2nc(-c2ccccc2)n1NCC1(O)OCC(O)C(O)C1O (stereo not drawn)
Malme-3M
  GI50: > 100 µM (inactive)
TK-10
  GI50: > 100 µM (inactive)
SK-MEL-28
  GI50: > 100 µM (inactive)
UACC-257
  GI50: > 100 µM (inactive)
DMS-273
  GI50: 60.5 µM (inactive)
EKVX
  GI50: > 100 µM (inactive)
SNB-78
  GI50: > 100 µM (inactive)
M19-MEL
  GI50: 49.8 µM (inactive)
SN12C
  GI50: > 100 µM (inactive)
SW-620
  GI50: 87.5 µM (inactive)
U-251
  GI50: 87.3 µM (inactive)
A498
  GI50: > 100 µM (inactive)
SF-295
  GI50: 49.2 µM (inactive)
ACHN
  GI50: 95.7 µM (inactive)
MOLT-4
  GI50: 14 µM (inactive)
DLD-1
  GI50: > 100 µM (inactive)
UACC-62
  GI50: > 100 µM (inactive)
IGROV-1
  GI50: > 100 µM (inactive)
SNB-19
  GI50: > 100 µM (inactive)
COLO 205
  GI50: > 100 µM (inactive)
HCC 2998
  GI50: > 100 µM (inactive)
NCI-H23
  GI50: > 100 µM (inactive)
SF-268
  GI50: > 100 µM (inactive)
HT-29
  GI50: > 100 µM (inactive)
HOP-92
  GI50: > 100 µM (inactive)
NCI-H522
  GI50: > 100 µM (inactive)
RPMI-8226
  GI50: 52.7 µM (inactive)
KM-20L2
  GI50: > 100 µM (inactive)
SK-MEL-5
  GI50: 48 µM (inactive)
SNB-75
  GI50: 50 µM (inactive)
HOP-18
  GI50: > 100 µM (inactive)
OVCAR-5
  GI50: > 100 µM (inactive)
CCRF-CEM
  GI50: 33.1 µM (inactive)
SF-539
  GI50: > 100 µM (inactive)
786-0
  GI50: > 100 µM (inactive)
HCT-116
  GI50: > 100 µM (inactive)
OVCAR-3
  GI50: > 100 µM (inactive)
KM12
  GI50: > 100 µM (inactive)
HL-60
  GI50: 33 µM (inactive)
DMS-114
  GI50: > 100 µM (inactive)
UO-31
  GI50: > 100 µM (inactive)
M14
  GI50: > 100 µM (inactive)
LXFL 529
  GI50: > 100 µM (inactive)
OVCAR-8
  GI50: > 100 µM (inactive)
A549
  GI50: 81.3 µM (inactive)
K562
  GI50: > 100 µM (inactive)
SK-OV-3
  GI50: > 100 µM (inactive)
CAKI-1
  GI50: 47.3 µM (inactive)
SK-MEL-2
  GI50: > 100 µM (inactive)
OVCAR-4
  GI50: > 100 µM (inactive)
HOP-62
  GI50: > 100 µM (inactive)
HCT-15
  GI50: > 100 µM
NCI-H226
  GI50: > 100 µM (inactive)
NCI-H460
  GI50: 30.1 µM (inactive)

## CC(C)(C)OC(=O)N1CC(C)(C)N2C(=O)C3(CCCO3)C12 (stereo not drawn)
Malme-3M
  GI50: > 100 µM (inactive)
TK-10
  GI50: > 100 µM (inactive)
SK-MEL-28
  GI50: > 100 µM (inactive)
UACC-257
  GI50: > 100 µM (inactive)
DMS-273
  GI50: 37.8 µM (inactive)
EKVX
  GI50: > 100 µM (inactive)
SNB-78
  GI50: > 100 µM (inactive)
M19-MEL
  GI50: > 100 µM (inactive)
SN12C
  GI50: > 100 µM (inactive)
SW-620
  GI50: 14.9 µM (inactive)
U-251
  GI50: 45.3 µM (inactive)
A498
  GI50: > 100 µM (inactive)
SF-295
  GI50: > 100 µM (inactive)
ACHN
  GI50: > 100 µM (inactive)
MOLT-4
  GI50: > 100 µM (inactive)
DLD-1
  GI50: > 100 µM (inactive)
LOX IMVI
  GI50: > 100 µM (inactive)
UACC-62
  GI50: > 100 µM (inactive)
IGROV-1
  GI50: > 100 µM (inactive)
SNB-19
  GI50: > 100 µM (inactive)
COLO 205
  GI50: > 100 µM (inactive)
HCC 2998
  GI50: > 100 µM (inactive)
RXF 393
  GI50: > 100 µM (inactive)
NCI-H23
  GI50: > 100 µM (inactive)
SF-268
  GI50: > 100 µM (inactive)
HT-29
  GI50: > 100 µM (inactive)
HOP-92
  GI50: > 100 µM (inactive)
NCI-H522
  GI50: > 100 µM (inactive)
RPMI-8226
  GI50: 19.5 µM (inactive)
KM-20L2
  GI50: > 100 µM (inactive)
SK-MEL-5
  GI50: > 100 µM (inactive)
SNB-75
  GI50: > 100 µM (inactive)
HOP-18
  GI50: > 100 µM (inactive)
OVCAR-5
  GI50: > 100 µM (inactive)
CCRF-CEM
  GI50: 67.1 µM (inactive)
SF-539
  GI50: > 100 µM (inactive)
786-0
  GI50: > 100 µM (inactive)
HCT-116
  GI50: > 100 µM (inactive)
OVCAR-3
  GI50: > 100 µM (inactive)
KM12
  GI50: > 100 µM (inactive)
HL-60
  GI50: > 100 µM (inactive)
DMS-114
  GI50: > 100 µM (inactive)
UO-31
  GI50: > 100 µM (inactive)
M14
  GI50: > 100 µM (inactive)
LXFL 529
  GI50: > 100 µM (inactive)
OVCAR-8
  GI50: > 100 µM (inactive)
A549
  GI50: > 100 µM (inactive)
K562
  GI50: 58.9 µM (inactive)
SK-OV-3
  GI50: > 100 µM (inactive)
CAKI-1
  GI50: > 100 µM (inactive)
SK-MEL-2
  GI50: > 100 µM (inactive)
OVCAR-4
  GI50: > 100 µM (inactive)
HOP-62
  GI50: > 100 µM (inactive)
HCT-15
  GI50: > 100 µM
NCI-H226
  GI50: > 100 µM (inactive)
NCI-H460
  GI50: > 100 µM (inactive)
